Where a name gives a salt, the structure may show the parent alone. Read-outs that look alike come from different tables or passages of the source.
Target: T1, human cannabinoid CB2 receptor (Homo sapiens, UniProt P34972)
T1 construct: expressed in transfected cells; host or cells: Saccharomyces cerevisiae strain MMY23 (cassette integrated at the ura3 locus; chimeric Gpa1/Gαi3)
Experiment: Cannabinoid CB2 receptor agonist activity, yeast (Saccharomyces cerevisiae) cells expressing the receptor, FDGlu fluorescence
Format: cell-based
Conditions: for Emax: read-out: efficacy (Emax relative to HU210) at the cloned human cannabinoid CB2 receptor
Experimental: The cannabinoid CB2 receptor agonist activity of the compounds of formula (I) was determined in accordance with the following experimental method.
Yeast (Saccharomyces cerevisiae) cells expressing the human cannabinoid CB2 receptor were generated by integration of an expression cassette into the ura3 chromosomal locus of yeast strain MMY23. This cassette consisted of DNA sequence encoding the human CB2 receptor flanked by the yeast GPD promoter to the 5′ end of CB2 and a yeast transcriptional terminator sequence to the 3′ end of CB2. MMY23 expresses a yeast/mammalian chimeric G-protein alpha subunit in which the C-terminal 5 amino acids of Gpa1 are replaced with the C-terminal 5 amino acids of human Gαi3 (as described in Brown et al. (2000), Yeast 16:11-22). Cells were grown at 30° C. in liquid Synthetic Complete (SC) yeast media (Guthrie and Fink (1991), Methods in Enzymology, Vol. 194) lacking uracil, tryptophan, adenine and leucine to late logarithmic phase (approximately 6 OD600/ml).
Agonists were prepared as 10 mM stocks in DMSO. EC50 values (the concentration required to produce 50% maximal response) were estimated using dilutions of between 3- and 5-fold (BiomekFX, Beckman) into DMSO. Agonist solutions in DMSO (1% final assay volume) were transferred into black, clear bottom, microtitre plates from NUNC (96- or 384-well). Cells were suspended at a density of 0.2 OD600/ml in SC media lacking histidine, uracil, tryptophan, adenine and leucine and supplemented with 10 mM 3-aminotriazole, 0.1M sodium phosphate pH 7.0, and […] fluorescein di-β-D-glucopyranoside (FDGlu). This mixture (50 ul per well for 384-well plates, 200 ul per well for 96-well plates) was added to agonist in the assay plates (Multidrop 384, Labsystems). After incubation at 30° C. for 24 hours, fluorescence resulting from degradation of FDGlu to fluorescein due to exoglucanase, an endogenous yeast enzyme produced during agonist-stimulated cell growth, was determined using a Spectrofluor microtitre plate reader (Tecan; excitation wavelength: 485 nm; emission wavelength: 535 nm). Fluorescence was plotted against compound concentration and iteratively curve fitted using a four parameter fit to generate a concentration effect value. Efficacy (Emax) was calculated from the equation
Emax=Max[compound X]−Min[compound X]/Max[HU210]−Min[HU210]×100%
where Max[compound X] and Min[compound X] are the fitted maximum and minimum respectively from the concentration effect curve for compound X, and Max[HU210] and Min[HU210] are the fitted maximum and minimum respectively from the concentration effect curve for (6aR,10aR)-3-1,1′-Dimethylheptyl)-6a,7,10,10a-tetrahydro-1-hydroxy-6,6-dimethyl-6H-dibenzo[b,d]pyran-9-methanol (HU210; available from Tocris). Equieffective molar ratio (EMR) values were calculated from the equation
Where EC50[compound X] is the EC50 of compound X and EC50[HU210] is the EC50 of HU210.

[1] = yeast agonist assay, read-out: EC50 at the cloned human cannabinoid CB2 receptor

T1 sequence (P34972 whole entry): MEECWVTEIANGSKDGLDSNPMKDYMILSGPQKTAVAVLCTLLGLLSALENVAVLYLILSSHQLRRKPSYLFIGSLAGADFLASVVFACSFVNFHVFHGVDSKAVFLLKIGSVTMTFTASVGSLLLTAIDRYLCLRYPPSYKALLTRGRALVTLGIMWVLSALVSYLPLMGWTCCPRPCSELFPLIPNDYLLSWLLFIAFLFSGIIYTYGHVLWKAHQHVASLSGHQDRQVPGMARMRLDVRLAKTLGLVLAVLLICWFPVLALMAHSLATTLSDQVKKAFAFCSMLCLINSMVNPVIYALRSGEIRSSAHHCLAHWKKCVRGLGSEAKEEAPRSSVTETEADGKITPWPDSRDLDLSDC

With `CCC(C)NCc1cnc(Nc2cccc(Cl)c2)nc1C(F)(F)F` (stereo not drawn) [Example 48, [5-(sec-Butylamino-methyl)-4-trifluoromethyl-pyrimidin-2-yl]-(3-chloro-phenyl)-amine, formate] the Emax was > 50% and the EC50 [1] was 300 to 1000 nM.

For `FC(F)(F)c1nc(Nc2cccc(Cl)c2)ncc1CNC[C@H]1CCCO1` [Example 49, (3-Chlorophenyl)-(5-{[[(2R)-tetrahydro-furan-2-ylmethyl]-amino]-methyl}-4-trifluoromethyl-pyrimidin-2-yl)-amine,formate], the Emax was > 50% and the EC50 [1] was 300 to 1000 nM.

`CN(Cc1cnc(Nc2cccc(Cl)c2)nc1C(F)(F)F)CC1CCC1` [Example 51] was tested, and the Emax was > 50% and the EC50 [1] was 300 to 1000 nM.

For `CC(O)CNCc1cnc(Nc2cccc(Cl)c2)nc1C(F)(F)F` (stereo not drawn) [Example 52, 1-{[2-(3-Chlorophenylamino)-4-trifluoromethyl-pyrimidin-5-ylmethyl]-amino}-propan-2-ol], the Emax was > 50% and the EC50 [1] was 300 to 1000 nM.

For `FC(F)(F)c1nc(Nc2ccc(Cl)cc2Cl)ncc1CN1CCCC1` [Example 53, (2,4-Dichlorophenyl)-(5-pyrrolidin-1-ylmethyl-4-trifluoromethyl-pyrimidin-2-yl)-amine], the Emax was > 50% and the EC50 [1] was 300 to 1000 nM.

For `Fc1cccc(Nc2ncc(CNCC3CC3)c(C(F)(F)F)n2)c1` [Example 54, (3-Fluorophenyl)-{5-[(cyclopropylmethylamino)-methyl]-4-trifluoromethyl-pyrimidin-2-yl}-amine,formate], the Emax was > 50% and the EC50 [1] was 300 to 1000 nM.

With `CC(C)CCNCc1cnc(Nc2cccc(F)c2)nc1C(F)(F)F` [Example 55, (3-Fluorophenyl)-{5-[(3-methylbutylamino)-methyl]-4-trifluoromethyl-pyrimidin-2-yl}-amine] the Emax was > 50% and the EC50 [1] was 300 to 1000 nM.

With `Fc1cccc(Nc2ncc(CN3CCOCC3)c(C(F)(F)F)n2)c1` [Example 56, (3-Fluorophenyl)-(5-morpholin-4-ylmethyl-4-trifluoromethyl-pyrimidin-2-yl)-amine] the Emax was > 50% and the EC50 [1] was 300 to 1000 nM.

`N#Cc1cccc(Nc2ncc(CNC3CC3)c(C(F)(F)F)n2)c1` [Example 58, (3-Cyanophenyl)-(5-cyclopropylaminomethyl-4-trifluoromethyl-pyrimidin-2-yl)-amine,formate] was tested, and the Emax was > 50% and the EC50 [1] was 300 to 1000 nM.

`CC(C)CNCc1cnc(Nc2cccc(C#N)c2)nc1C(F)(F)F` [Example 59, (3-Cyanophenyl)-{5-[(isobutylamino)-methyl]-4-trifluoromethyl-pyrimidin-2yl}-amine, formate] was tested, and the Emax was > 50% and the EC50 [1] was 300 to 1000 nM.

In the case of `COCCN(CCOC)Cc1cnc(Nc2cccc(Cl)c2)nc1C(F)(F)F` [Example 83, (5-{[Bis-(2-methoxy-ethyl)-amino]-methyl}-4-trifluoromethyl-pyrimidin-2-yl)-(3-chlorophenyl)-amine], the “potency or efficacy at the CB2 receptor (in words)” value is reported as “no appreciable potency or efficacy” and the “potency or efficacy at the CB2 receptor (in words)” value (listed as (5-{[Bis-(2-methoxy-ethyl)-amino]-methyl}-4-trifluoromethyl-pyrimidin-2-yl)-(3-c)) is reported as “do not appear to have any potency or efficacy”.

With `CC(NC1CC1)c1cnc(Nc2cccc(Cl)c2)nc1C(F)(F)F` (stereo not drawn) [Example 85] the EC50 was < 300 nM and the Emax was > 50%.

In the case of `CC(NC1CC1)c1cnc(Nc2cccc(F)c2)nc1C(F)(F)F` (stereo not drawn) [Example 86, (3-Fluorophenyl)-[5-(1-cyclopropylamino-ethyl)-4-trifluoromethyl-pyrimidin-2-yl]-amine], the EC50 is reported as < 300 nM and the Emax is reported as > 50%.

For `CC(C)CNC(C)c1cnc(Nc2cccc(F)c2)nc1C(F)(F)F` (stereo not drawn) [Example 87, (3-Fluorophenyl)-[5-(1-isobutylamino-ethyl)-4-trifluoromethyl-pyrimidin-2-yl]-amine], the EC50 [1] was < 300 nM and the Emax (yeast agonist assay) was > 50%.

`CC(NCC1CCOCC1)c1cnc(Nc2cccc(Cl)c2)nc1C(F)(F)F` (stereo not drawn) [Example 88, (3-Chlorophenyl)-(5-{1-[(tetrahydro-pyran-4-ylmethyl)-amino]-ethyl}-4-trifluoromethyl-pyrimidin-2-yl)-amine, formate] was tested, and the EC50 [1] was < 300 nM and the Emax (yeast agonist assay) was > 50%.
